Source: publication PMC4331650 (Biochimica et Biophysica Acta, 2014)
Where a chain is given by its changes, count along the chain named.

Tests used:
Type in all cases: cell-based
F256A CLC-Ka [1] = molecular target: T1, F256A CLC-Ka (Homo sapiens, UniProt P51800, F256A); experiment: NFA modulation of F256A CLC-Ka currents, voltage clamp in Xenopus oocytes
T1 sequence (P51800 1-687 F256A): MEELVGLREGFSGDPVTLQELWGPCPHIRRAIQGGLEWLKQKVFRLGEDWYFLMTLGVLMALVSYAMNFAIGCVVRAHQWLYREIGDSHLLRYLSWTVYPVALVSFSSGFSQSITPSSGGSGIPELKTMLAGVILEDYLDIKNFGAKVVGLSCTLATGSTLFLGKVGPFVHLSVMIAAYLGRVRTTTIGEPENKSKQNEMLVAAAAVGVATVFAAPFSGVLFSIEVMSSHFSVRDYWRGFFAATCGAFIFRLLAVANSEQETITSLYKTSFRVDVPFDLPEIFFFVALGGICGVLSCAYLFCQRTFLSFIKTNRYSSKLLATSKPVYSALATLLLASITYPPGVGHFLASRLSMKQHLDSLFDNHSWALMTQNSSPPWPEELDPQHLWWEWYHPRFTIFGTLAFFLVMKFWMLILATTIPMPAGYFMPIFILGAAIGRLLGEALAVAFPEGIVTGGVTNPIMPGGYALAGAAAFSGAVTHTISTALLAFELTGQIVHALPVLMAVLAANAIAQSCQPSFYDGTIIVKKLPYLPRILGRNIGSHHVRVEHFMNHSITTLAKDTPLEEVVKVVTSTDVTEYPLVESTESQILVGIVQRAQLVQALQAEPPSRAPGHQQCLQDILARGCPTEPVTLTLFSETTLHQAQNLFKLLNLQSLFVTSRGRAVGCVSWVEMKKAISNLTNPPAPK
T1 sequence (Q8WZ55 1-320 Y98A partner): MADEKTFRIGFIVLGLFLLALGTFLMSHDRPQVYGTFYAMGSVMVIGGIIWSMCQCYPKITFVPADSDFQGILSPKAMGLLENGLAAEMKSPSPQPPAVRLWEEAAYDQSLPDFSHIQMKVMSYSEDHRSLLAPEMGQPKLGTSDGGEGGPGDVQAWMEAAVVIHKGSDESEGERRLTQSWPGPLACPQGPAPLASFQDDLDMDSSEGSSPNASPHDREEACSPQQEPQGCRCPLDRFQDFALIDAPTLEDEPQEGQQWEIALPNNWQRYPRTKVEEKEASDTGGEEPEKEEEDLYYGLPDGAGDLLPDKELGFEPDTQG

F256A CLC-Ka [2] = molecular target: T1, F256A CLC-Ka; settings: 200 μM NFA
F256A CLC-K1 = molecular target: T2, F256A CLC-K1 (Rattus norvegicus, UniProt Q06393, F256A); experiment: NFA effect on F256A CLC-K1 without barttin, voltage clamp in Xenopus oocytes; settings: expressed without barttin
T2 sequence (Q06393 1-687 F256A): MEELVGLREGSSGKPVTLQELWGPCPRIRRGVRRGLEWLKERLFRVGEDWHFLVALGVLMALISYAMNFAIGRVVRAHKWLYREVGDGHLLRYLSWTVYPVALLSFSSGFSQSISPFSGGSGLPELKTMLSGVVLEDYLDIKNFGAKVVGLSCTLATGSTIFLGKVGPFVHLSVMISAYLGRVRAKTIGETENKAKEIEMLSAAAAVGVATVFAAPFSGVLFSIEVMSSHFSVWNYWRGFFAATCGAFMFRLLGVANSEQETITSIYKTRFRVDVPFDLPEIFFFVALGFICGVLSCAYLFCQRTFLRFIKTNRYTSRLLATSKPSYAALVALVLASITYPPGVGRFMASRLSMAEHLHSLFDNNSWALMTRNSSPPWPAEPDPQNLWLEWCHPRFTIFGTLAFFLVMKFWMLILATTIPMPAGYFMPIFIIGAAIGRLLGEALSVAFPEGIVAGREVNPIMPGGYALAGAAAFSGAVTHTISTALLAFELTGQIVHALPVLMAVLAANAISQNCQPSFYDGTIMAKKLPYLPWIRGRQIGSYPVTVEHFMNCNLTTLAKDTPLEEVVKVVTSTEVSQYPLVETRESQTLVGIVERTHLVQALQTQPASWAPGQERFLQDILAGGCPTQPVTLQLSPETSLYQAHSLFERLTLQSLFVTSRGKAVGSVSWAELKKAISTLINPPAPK

F256A CLC-Ka/barttin = molecular target: T3, F256A CLC-Ka/barttin (Homo sapiens, UniProt P51800, F256A); experiment: NFA effect on F256A CLC-Ka/barttin, whole-cell patch clamp in HEK293 cells
T3 sequence (P51800 1-687 F256A): T1 sequence (P51800 1-687 F256A)
T3 sequence (Q8WZ55 1-320 partner): T1 sequence (Q8WZ55 1-320 Y98A partner) with A98Y

N257A CLC-K1/barttin = molecular target: T4, N257A CLC-K1/barttin (Rattus norvegicus, UniProt Q06393, N257A); experiment: NFA effect on N257A CLC-K1 with barttin, voltage clamp in Xenopus oocytes; settings: 200 μM NFA
T4 sequence (Q06393 1-687 N257A): T2 sequence (Q06393 1-687 F256A) with A256F, N257A
T4 sequence (Q8WZ55 1-320 Y98A partner): T1 sequence (Q8WZ55 1-320 Y98A partner)

O=C(O)c1cccnc1Nc1cccc(C(F)(F)F)c1 [NFA, niflumic acid]
potentiation of currents (F256A CLC-Ka [1]; 2 μM NFA): two-fold | current increase (F256A CLC-Ka [1]; 200 μM NFA, F256A CLC-Ka in Xenopus oocytes): ~ 25 fold | effect of NFA on currents (F256A CLC-Ka [1]; all concentrations tested, from 1 to 2000 μM): potentiated | maximal stimulation (potentiation) of currents (F256A CLC-Ka [1]; at 500 μM NFA, currents at 60 mV normalized to 0 NFA): 37 fold | open probability after potentiation by NFA (F256A CLC-Ka [2]; judged from variance–mean plots without curvature): below 0.5 | effect on single channel conductance (F256A CLC-Ka [2]; −100 mV and 60 mV, noise analysis): does not change significantly | effect of NFA on currents (F256A CLC-K1): no potentiation | effect of NFA on currents (F256A CLC-Ka/barttin; 20 μM NFA): increased | effect of NFA on currents (F256A CLC-Ka/barttin; 500 μM NFA): inhibited | [NFA]ext up to which potentiation is seen (F256A CLC-Ka/barttin; inhibition at higher [NFA]ext): up to 200 μM | sensitivity to NFA compared with WT (N257A CLC-K1/barttin): only weakly more sensitive
